Experimental findings from ChEMBL document CHEMBL1146619, “The design and synthesis of guanosine compounds with in vitro activity against the colon cancer cell line SW480: non-taxane derived mimics of taxol?” (Bioorg Med Chem Lett, 2003) are described below.

This test concerns SW480. The test is described as follows: In vitro anti-cancer activity against the colon cancer cell line SW480 was determined. Format: functional, cell-based. Particulars: Homo sapiens.
In the case of `CC(C)C(=O)Nc1nc(O)c2ncn(C3OC(COC(=O)[C@@H]4OC(C)(C)N(C(=O)c5ccccc5)[C@H]4c4ccccc4)C4OC(C)(C)OC43)c2n1` (stereo not given in full), the IC50 (as a rule, the concentration at which inhibition is half-maximal) turned out to be 222 µM. On to `CC(=O)O[C@H]1C(=O)[C@@]2(C)[C@H]([C@H](OC(=O)c3ccccc3)[C@]3(O)C[C@H](OC(=O)[C@H](O)[C@@H](NC(=O)c4ccccc4)c4ccccc4)C(C)=C1C3(C)C)[C@]1(OC(C)=O)CO[C@@H]1C[C@@H]2O` [PACLITAXEL], for which the concentration for half-maximal inhibition (IC50) was 0.312 µM. On to `COc1ccc(C(Nc2nc(O)c3ncn(C4OC(COC(=O)[C@@H]5OC(C)(C)N(C(=O)c6ccccc6)[C@H]5c5ccccc5)C5OC(C)(C)OC54)c3n2)(c2ccccc2)c2ccccc2)cc1` (stereo not given in full), for which the IC50 is 152 µM. The molecule `COc1ccc(C(Nc2nc(O)c3ncn(C4OC(COC(=O)[C@@H]5OC(C)(C)N(C(C)=O)[C@H]5c5ccccc5)C5OC(C)(C)OC54)c3n2)(c2ccccc2)c2ccccc2)cc1` (stereo not given in full) showed an IC50 of 19.9 µM. As for `CC(=O)N1[C@@H](c2ccccc2)[C@H](C(=O)OCC2OC(n3cnc4c(O)nc(NC(=O)C(C)C)nc43)C3OC(C)(C)OC23)OC1(C)C` (stereo not given in full), the figure is 192 µM.
